Legend:
[1] = biological target: Beta-2 adrenergic receptor (Homo sapiens, UniProt P07550); assay type: functional, cell-based
[2] = biological target: Muscarinic acetylcholine receptor M3 (Homo sapiens, UniProt P20309)
Endothelin-1 receptor = biological target: T1, Endothelin-1 receptor (Homo sapiens, UniProt P25101)
T1 sequence (P25101 whole entry): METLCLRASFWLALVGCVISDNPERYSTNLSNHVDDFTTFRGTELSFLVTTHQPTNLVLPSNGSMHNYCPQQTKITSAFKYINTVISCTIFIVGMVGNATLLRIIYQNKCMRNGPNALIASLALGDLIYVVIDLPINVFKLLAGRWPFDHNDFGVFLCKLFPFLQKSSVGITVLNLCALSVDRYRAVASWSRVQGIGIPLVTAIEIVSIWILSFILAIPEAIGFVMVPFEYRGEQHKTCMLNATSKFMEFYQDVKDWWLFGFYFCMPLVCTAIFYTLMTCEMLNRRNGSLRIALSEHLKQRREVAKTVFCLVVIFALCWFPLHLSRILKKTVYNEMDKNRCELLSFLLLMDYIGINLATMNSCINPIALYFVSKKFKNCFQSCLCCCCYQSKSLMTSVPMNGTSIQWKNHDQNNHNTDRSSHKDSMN

[3] = biological target: T2, Muscarinic acetylcholine receptor M1 (Homo sapiens, UniProt P11229); assay type: functional
T2 sequence (P11229 whole entry): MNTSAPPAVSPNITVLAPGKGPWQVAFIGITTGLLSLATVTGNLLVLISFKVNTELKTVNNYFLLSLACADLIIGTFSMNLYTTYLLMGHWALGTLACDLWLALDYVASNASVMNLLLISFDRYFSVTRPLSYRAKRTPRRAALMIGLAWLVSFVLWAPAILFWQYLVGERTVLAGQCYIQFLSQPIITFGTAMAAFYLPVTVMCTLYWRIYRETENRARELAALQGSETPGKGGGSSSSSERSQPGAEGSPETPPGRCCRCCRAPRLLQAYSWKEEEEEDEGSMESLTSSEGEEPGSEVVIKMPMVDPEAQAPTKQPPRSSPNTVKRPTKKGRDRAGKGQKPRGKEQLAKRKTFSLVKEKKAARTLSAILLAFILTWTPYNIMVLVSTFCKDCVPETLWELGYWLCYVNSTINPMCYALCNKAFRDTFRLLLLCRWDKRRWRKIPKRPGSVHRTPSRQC

Histamine H1 receptor = Histamine H1 receptor (Homo sapiens, UniProt P35367)
Histamine H1 receptor, sequence (P35367 whole entry): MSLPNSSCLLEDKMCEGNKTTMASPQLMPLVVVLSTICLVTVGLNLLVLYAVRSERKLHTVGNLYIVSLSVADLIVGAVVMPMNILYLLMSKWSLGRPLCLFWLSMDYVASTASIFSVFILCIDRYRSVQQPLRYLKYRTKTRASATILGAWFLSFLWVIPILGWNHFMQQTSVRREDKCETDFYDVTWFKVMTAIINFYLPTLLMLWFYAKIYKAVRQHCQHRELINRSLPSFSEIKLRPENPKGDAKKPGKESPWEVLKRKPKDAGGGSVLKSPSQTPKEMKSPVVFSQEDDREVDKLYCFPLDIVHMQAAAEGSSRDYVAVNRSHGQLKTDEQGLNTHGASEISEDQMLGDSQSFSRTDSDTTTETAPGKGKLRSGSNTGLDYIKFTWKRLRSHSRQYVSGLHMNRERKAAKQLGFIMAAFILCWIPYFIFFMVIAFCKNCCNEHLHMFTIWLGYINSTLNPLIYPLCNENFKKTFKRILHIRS

[4] = biological target: T3, 5-hydroxytryptamine receptor 2A (Homo sapiens, UniProt P28223); assay type: functional, cell-based
T3 sequence (P28223 whole entry): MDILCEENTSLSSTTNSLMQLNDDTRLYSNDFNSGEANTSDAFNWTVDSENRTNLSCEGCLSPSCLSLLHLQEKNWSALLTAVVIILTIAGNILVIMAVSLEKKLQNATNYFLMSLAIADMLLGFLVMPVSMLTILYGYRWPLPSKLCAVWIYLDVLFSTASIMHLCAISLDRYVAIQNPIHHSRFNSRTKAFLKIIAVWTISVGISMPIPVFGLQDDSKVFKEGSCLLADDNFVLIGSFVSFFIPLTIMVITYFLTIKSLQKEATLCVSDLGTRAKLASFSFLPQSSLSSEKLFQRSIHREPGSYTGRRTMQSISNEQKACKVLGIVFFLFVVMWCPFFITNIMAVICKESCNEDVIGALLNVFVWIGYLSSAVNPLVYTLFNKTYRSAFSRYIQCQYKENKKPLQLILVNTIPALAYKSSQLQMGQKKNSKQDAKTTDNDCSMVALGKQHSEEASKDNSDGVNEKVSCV

[5] = biological target: T3, 5-hydroxytryptamine receptor 2A; assay type: functional, cell-based; remark: listed apart in the source
Further: assay procedure not described here.

Muscarinic acetylcholine receptor M3, sequence (P20309 whole entry): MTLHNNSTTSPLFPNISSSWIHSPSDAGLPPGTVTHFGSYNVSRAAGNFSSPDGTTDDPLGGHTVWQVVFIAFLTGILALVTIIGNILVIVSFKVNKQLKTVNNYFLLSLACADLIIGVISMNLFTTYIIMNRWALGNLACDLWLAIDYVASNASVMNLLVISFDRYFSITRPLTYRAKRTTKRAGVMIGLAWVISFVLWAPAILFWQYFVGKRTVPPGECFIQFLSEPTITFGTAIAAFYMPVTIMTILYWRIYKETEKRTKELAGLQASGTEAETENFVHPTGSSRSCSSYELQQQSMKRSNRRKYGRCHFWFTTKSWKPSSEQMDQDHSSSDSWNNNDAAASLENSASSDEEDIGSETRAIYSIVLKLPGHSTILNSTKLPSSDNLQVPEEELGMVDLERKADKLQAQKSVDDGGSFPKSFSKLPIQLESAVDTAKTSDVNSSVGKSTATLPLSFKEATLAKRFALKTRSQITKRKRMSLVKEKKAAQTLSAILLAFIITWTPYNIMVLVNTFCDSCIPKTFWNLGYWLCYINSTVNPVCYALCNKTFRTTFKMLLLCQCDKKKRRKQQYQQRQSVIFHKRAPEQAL
Beta-2 adrenergic receptor, sequence (P07550 whole entry): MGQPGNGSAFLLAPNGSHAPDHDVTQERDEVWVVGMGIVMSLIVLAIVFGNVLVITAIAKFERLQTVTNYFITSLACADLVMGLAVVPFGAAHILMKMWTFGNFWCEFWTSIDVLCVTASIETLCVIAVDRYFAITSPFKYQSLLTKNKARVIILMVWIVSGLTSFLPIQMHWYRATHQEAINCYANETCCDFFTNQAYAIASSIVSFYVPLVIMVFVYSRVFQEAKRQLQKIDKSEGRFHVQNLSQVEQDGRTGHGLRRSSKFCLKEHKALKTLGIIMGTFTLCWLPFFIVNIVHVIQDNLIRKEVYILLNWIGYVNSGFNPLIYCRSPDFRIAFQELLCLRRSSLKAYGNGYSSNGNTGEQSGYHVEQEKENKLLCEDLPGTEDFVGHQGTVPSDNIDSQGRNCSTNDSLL

O=C(O)COCCN1CCN(C(c2ccccc2)c2ccc(Cl)cc2)CC1 (centres undefined) [CETIRIZINE]
AC50 [1]: > 30 µM | AC50 [2]: > 10 µM | AC50 (Endothelin-1 receptor): > 30 µM

Cc1ccccc1-n1c(CF)nc2ccc(N)cc2c1=O [AFLOQUALONE]
AC50 [3]: > 10 µM | AC50 [2]: > 30 µM | AC50 (Histamine H1 receptor): > 10 µM | AC50 [4]: > 10 µM | AC50 [5]: > 10 µM

COc1ccc([C@@H]2CC(=O)c3c(O)cc(O)cc3O2)cc1O [HESPERETIN]
AC50 [3]: > 10 µM | AC50 [2]: > 30 µM | AC50 (Histamine H1 receptor): > 10 µM | AC50 [4]: > 10 µM | AC50 [5]: > 10 µM

CCCN1CC(NS(=O)(=O)N(CC)CC)CC2Cc3c(O)cccc3CC21 (centres undefined) [QUINAGOLIDE]
AC50 [1]: > 30 µM | AC50 [3]: > 30 µM | AC50 [2]: > 30 µM | AC50 (Endothelin-1 receptor): > 30 µM | AC50 (Histamine H1 receptor): 2.8 µM

CN[C@@H](C)[C@@H](O)c1ccccc1 [PSEUDOEPHEDRINE]
AC50 [3]: > 10 µM | AC50 [2]: > 10 µM | AC50 (Endothelin-1 receptor): > 30 µM | AC50 (Histamine H1 receptor): > 10 µM

CCOC(=O)c1c(CSc2ccccc2)n(C)c2cc(Br)c(O)c(CN(C)C)c12 [UMIFENOVIR]
AC50 [3]: 18 µM | AC50 [2]: > 30 µM | AC50 (Endothelin-1 receptor): > 30 µM | AC50 (Histamine H1 receptor): 30 µM | AC50 [4]: > 30 µM | AC50 [5]: 6.7 µM

C[C@]12C=CC(=O)C=C1CC[C@@H]1[C@@H]2CC[C@]2(C)OC(=O)CC[C@@H]12 [TESTOLACTONE]
AC50 [1]: > 30 µM | AC50 [3]: > 10 µM | AC50 [2]: > 30 µM | AC50 (Histamine H1 receptor): > 10 µM | AC50 [4]: > 30 µM | AC50 [5]: > 30 µM

O=C1c2cccc3c2[C@H](CCC3)CN1[C@@H]1CN2CCC1CC2 [PALONOSETRON]
AC50 [3]: > 30 µM | AC50 [2]: 28 µM | AC50 [4]: > 30 µM | AC50 [5]: > 30 µM

C[N+](C)(C)CCOP(=O)([O-])OC[C@H](O)CO
AC50 [1]: > 30 µM | AC50 (Endothelin-1 receptor): > 30 µM

C/C=C(/C(=C/C)c1ccc(O)cc1)c1ccc(O)cc1 [DIENESTROL]
AC50 [2]: > 30 µM | AC50 (Histamine H1 receptor): > 10 µM | AC50 [4]: > 10 µM | AC50 [5]: > 10 µM

CN(C)CCCN1c2ccccc2CCc2ccccc21 [IMIPRAMINE]
AC50 [1]: > 30 µM | AC50 (Endothelin-1 receptor): > 30 µM

CN(Cc1cnc2nc(N)nc(N)c2n1)c1ccc(C(=O)N[C@@H](CCC(=O)O)C(=O)O)cc1 [METHOTREXATE]
AC50 [1]: > 30 µM | AC50 (Endothelin-1 receptor): > 30 µM

Cc1cccc(C)c1NC(=O)CC12CCCN1CCC2 [PILSICAINIDE]
AC50 [3]: > 30 µM | AC50 [2]: > 30 µM | AC50 (Endothelin-1 receptor): > 30 µM | AC50 (Histamine H1 receptor): > 30 µM | AC50 [4]: > 30 µM | AC50 [5]: > 30 µM

CCOC(=O)C1=C(C)NC(C)=C(C(=O)OCC)C1c1ccccc1/C=C/C(=O)OC(C)(C)C [LACIDIPINE]
AC50 (Endothelin-1 receptor): > 30 µM

CCC[C@@H]1C[C@@H](C(=O)N[C@@H]([C@H]2O[C@H](SC)[C@H](O)[C@@H](O)[C@H]2O)[C@@H](C)O)N(C)C1 [LINCOMYCIN]
AC50 [1]: > 30 µM

CC(C)c1cccc(C(C)C)c1O [PROPOFOL]
AC50 [1]: > 30 µM | AC50 (Endothelin-1 receptor): > 30 µM

C[N+]1(C)CCC(=C(c2ccccc2)c2ccccc2)CC1
AC50 [3]: 0.41 µM | AC50 [2]: 0.19 µM | AC50 (Histamine H1 receptor): 2.9 µM | AC50 [4]: > 10 µM | AC50 [5]: 19 µM

CCC1(c2ccc(N)cc2)CCC(=O)NC1=O (centres undefined) [AMINOGLUTETHIMIDE]
AC50 [1]: > 30 µM | AC50 (Endothelin-1 receptor): > 30 µM

CC1=C(C(=O)OC(C)C)C(c2cccc([N+](=O)[O-])c2)C(C(=O)OC2CN(C(c3ccccc3)c3ccccc3)C2)=C(N)N1 (centres undefined) [AZELNIDIPINE]
AC50 [3]: > 30 µM | AC50 [2]: > 30 µM | AC50 (Endothelin-1 receptor): > 30 µM | AC50 (Histamine H1 receptor): > 30 µM | AC50 [4]: > 30 µM | AC50 [5]: > 30 µM

CN[C@]1(c2ccccc2Cl)CCCCC1=O [ESKETAMINE]
AC50 (Endothelin-1 receptor): > 30 µM

C=C1c2cccc(O)c2C(=O)C2=C(O)[C@]3(O)C(=O)C(C(N)=O)=C(O)[C@@H](N(C)C)[C@@H]3[C@@H](O)[C@H]12 [METHACYCLINE]
AC50 [3]: > 10 µM | AC50 [2]: > 30 µM | AC50 (Histamine H1 receptor): > 10 µM | AC50 [4]: > 10 µM | AC50 [5]: > 10 µM

CN(C)Cc1nnc2n1-c1ccc(Cl)cc1C(c1ccccc1)=NC2 [ADINAZOLAM]
AC50 [3]: > 10 µM | AC50 (Histamine H1 receptor): > 10 µM
